Read-outs that look alike come from different tables or passages of the source.
How the values were obtained:
avidin = avidin (Gallus gallus, UniProt P02701); experiment: Homogeneous pH modulation assay in capillary tubes with Texas Red succinimidyl ester conjugated avidin; format: binding; conditions: for fluorescence intensity versus capillary without ligand: 3 μM ortho-Texas Red succinimidyl ester conjugated avidin, PBS pH 7.0
From the text: The pH modulation detection assay is amenable monitoring protein-small molecule and protein-protein interactions homogeneously in aqueous solution.
Avidin was labeled with Texas Red® succinimidyl ester as follows: The ortho isomer of Texas Red® succinimidyl ester was separated from the para isomer via thin layer chromatography utilizing silica plates (TLC Silica Gel 60 F254, EMD Chemicals) and 8:92 (methanol:chloroform) solvent. The separated band was removed from the plates with a razor and the ortho-Texas Red® succinimidyl ester was eluted from the silica with the same methanol/chloroform solvent. The dye (21 μg) was dried down with nitrogen in a 2 mL reactive vial containing a magnetic stir bar. To this reaction vial was added 0.5 mL of a 2 mg/mL avidin solution in 1 M sodium bicarbonate. This solution was allowed to stir for two hours at room temperature before being separated in a column containing Bio-Rad BioGel® Fine size purification resin in phosphate buffered saline (PBS, 10 mM potassium phosphate, 150 mM NaCl, 2 mM sodium azide, pH 7.2). This PBS was utilized as the elution buffer as well. The collected Texas-Red® succinimidyl ester-labeled avidin was utilized in the sensing experiments.
The two rectangular capillaries were passivated with a surface coating of bovine serum albumin (BSA). The BSA was then thoroughly rinsed away with phosphate buffered saline (10 mM Na2HPO4, 150 mM NaCl, pH 7.0). Next, a 3 μM solution of ortho-Texas Red® succinimidyl ester conjugated avidin was introduced in PBS into both capillaries. The right capillary additionally contained a 200 μM concentration of biotin (vitamin B7). A line scan across the micrograph is shown on the right. […] It should be noted that avidin is a positively charged protein and the biotin is […] in solution near pH 7.0. Therefore, the local pH near the protein surface is lowered when the small molecule binds.
As a control, the same set of experiments was run as in FIG. 38. However, this time the avidin was conjugated with para-Texas Red® succinimidyl ester (FIG. 39). […]

[1] = pH titration of Texas Red DHPE isomers in supported lipid bilayers (fluorescence); format: physicochemical
Procedure: The peak heights from the ortho-conjugated Texas Red® data in FIG. 5 may be used to obtain a titration curve for this isomer. […] To obtain the y-axis, the peak height at pH 3 was set to 1.0, and all other peak heights are relative to this value.
pH Titration and Buffer Preparation. […] These pH values were chosen to locate the pKA value of ortho-Texas Red® DHPE. The pH could be adjusted to the desired value by the dropwise addition of HCl or NaOH. The pH was measured with a standard glass electrode setup. […] Titration curves for the dye molecules in SLBs were obtained by systematically changing the pH of the bulk solution in a stepwise fashion. Fresh buffer was continuously flowed over the surface until no further changes in fluorescence intensity could be observed. […] Fluorescent micrographs of SLBs were captured with a standard epifluorescence microscope setup (Nikon Eclipse E800).
The fluorescence titration curve of the Texas Red® DHPE dye molecules was monitored in SLBs containing two narrow, parallel lines of bilayers with distinct dye chemistries. […] The second line was identical, but contained para-Texas Red® DHPE instead of the ortho isomer. The surrounding lipid matrix was a 1:1:1 mixture of DOPC, DPPC, and cholesterol.
In this case, however, a saturation concentration of IgG (500 nM) was first introduced into the bulk solution. Moreover, all fluorescence measurements as a function of pH were performed in the presence of 500 nM bulk protein concentration to ensure that the surface remained saturated with protein.
Titration Curves for ortho-Texas Red® DHPE. In a first set of experiments, the pH dependent responses of the ortho- and para-conjugated Texas Red® dyes were investigated in supported POPC bilayers with 0.5 mol % biotin-cap-PE. […] Bulk solutions at a given pH value were continuously flowed into the device until the fluorescence intensity remained constant. Fluorescence images at each pH value were then captured (FIG. 15a).
Titration Curve with a Saturated Protein Layer. […] First, two separated bilayer strips were formed as described above. […] All subsequent measurements were made by tuning the solution pH value, but keeping the bulk IgG concentration constant.

[2] = cited from earlier work; for τ0 (fluorescence lifetime): dye concentrations of about 10^−7 M; for φb (quantum yield of photobleaching) / μ (mean number of survived excitation cycles): in water at low irradiances; for μ (mean number of survived excitation cycles): μ calculated from φb
[3] = biotin/streptavidin binding, literature; cited from earlier work
[4] = pH modulation assay of avidin and streptavidin on biotin-PE bilayers (turn on / turn off); format: binding; conditions: 1 μM protein
From the text: In addition to being able to detect negatively charged proteins, experiments have also been performed showing that our pH modulation assay can detect positively charged proteins. In this case, the sensor works as a “turn off” rather than as a “turn on” sensor. To investigate this, the binding of avidin, which is a positively charged macromolecule, was studied. The conditions were similar to those described above except where explicitly stated. Under all conditions, a saturation concentration of avidin or streptavidin was employed (1 μM). The bilayers each contained 1 mol % biotin-PE and 0.03 mol % ortho-Texas Red® DHPE.
However, upon adding 20 mol % DOPS (a negatively charged lipid) to the membrane, the assay was rerun at pH 9.25. Under these conditions, it detects avidin in a “turn off” mode and streptavidin in a “turn on” mode.

[5] = literature values; cited from earlier work
[6] = pH 8.2, POPC, 1 mol % biotin-PE, 0.03 mol % ortho-Texas Red DHPE
[7] = pH 9.25, 20 mol % DOPS added to the membrane

avidin, sequence (P02701 25-152, species assumed): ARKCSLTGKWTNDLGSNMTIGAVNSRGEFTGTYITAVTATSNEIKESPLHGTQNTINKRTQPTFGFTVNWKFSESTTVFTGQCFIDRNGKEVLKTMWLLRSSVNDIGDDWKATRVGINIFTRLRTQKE

Q: For “biotinylated bovine serum albumin: biotinylated bovine serum albumin (BSA)”, which “fluorescence intensity versus capillary without ligand” value (avidin; 500 μM biotinylated BSA) is on record?
A: approximately a factor of eight higher

Q: Which results are given for “ortho-sulforhodamine 101-DHPE [ortho-Texas Red® DHPE]”?
A: shift of apparent pKA to a more basic value ([1]; 20 mol % DOPS added to the membranes, with respect to FIG. 15b): 0.44 pH units; fluorescence intensity of the band as a function of bulk pH ([1]; POPC bilayers with 0.5 mol % biotin-cap-PE, pH 10.2 to 4.0): showed higher intensity at more acidic pH values; apparent pKA ([1]; SLB containing 0.5 mol % biotin-cap-PE on glass, pH 10.2 to 4.0, ortho/para ratio, FIG. 15b): 7.8±0.1; apparent shift of titration curve midpoint ([1]; saturated anti-biotin IgG layer (500 nM) versus no bound proteins): ~0.35 pH units; pKA of the dye ([1]; supported phospholipid bilayer, pH 3 to 11, FIG. 6): 7.8

Q: For Cc1cc(=O)oc2c3c4c(cc12)CCCN4CCC3 [Coumarin 102], which “σ01 (λ)” value ([2]; 397 nm) is on record?
A: 7.0 (397 nm) 10^−17 cm^2

Q: And the “τ0 (fluorescence lifetime)” value [2]?
A: 5.5 ns

Q: And the “φb (quantum yield of photobleaching)” value [2]?
A: 4.3 × 10^−4

Q: What about the “μ (mean number of survived excitation cycles)” value [2] of the same compound?
A: 2 300

Q: For Coumarin 39, which “τ0 (fluorescence lifetime)” value [2] is on record?
A: 5.6 ns

Q: And the “φb (quantum yield of photobleaching)” value [2]?
A: 1.2 × 10^−3

Q: And the “μ (mean number of survived excitation cycles)” value [2]?
A: 800

Q: Which Kd [3] does the source give for “streptavidin: negatively charged biotin-binding protein” here?
A: ~1 pM

Q: What about the “detection by the pH modulation assay” value [4, 6] of the same compound?
A: does not detect

Q: And the “detection by the pH modulation assay” value [4, 7]?
A: turn on

Q: What about the “isoelectric point (pI)” value [5] of the same compound?
A: 6.4

Q: With O=C(O)CCCC[C@@H]1SC[C@@H]2NC(=O)N[C@@H]21 [biotin] as the compound, how does the “fluorescence intensity versus capillary without ligand” value (avidin; 200 μM biotin) read?
A: approximately a factor of five higher

Q: What about the “fluorescence difference between the two capillary tubes” value (avidin; avidin conjugated with para-Texas Red succinimidyl ester (control), saturation biotin) of the same compound?
A: little if any fluorescence difference

Q: With Cc1cc(=O)[nH]c2cc(N)ccc12 [Carbostyril 124] as the compound, how does the “σ01 (λ)” value ([2]; 335 nm) read?
A: 6.3 (335 nm) 10^−17 cm^2

Q: And the “τ0 (fluorescence lifetime)” value [2]?
A: 5.0 ns

Q: And the “φb (quantum yield of photobleaching)” value [2]?
A: 1.4 × 10^−3

Q: What about the “μ (mean number of survived excitation cycles)” value [2] of the same compound?
A: 700

Q: What does the source list for Cc1cc(=O)oc2cc(N)ccc12 [Coumarin 120]?
A: σ01 (λ) ([2]; 365 nm): 3.9 (365 nm) 10^−17 cm^2; τ0 (fluorescence lifetime) [2]: 5.0 ns; φb (quantum yield of photobleaching) [2]: 3.4 × 10^−4; μ (mean number of survived excitation cycles) [2]: 3 000

Q: Which “σ01 (λ)” value ([2]; 515 nm) does the source give for Rhodamine 123 here?
A: 12.3 (515 nm) 10^−17 cm^2

Q: What about the “τ0 (fluorescence lifetime)” value [2] of the same compound?
A: 4.0 ns

Q: And the “φb (quantum yield of photobleaching)” value [2]?
A: 6.4 × 10^−7

Q: And the “μ (mean number of survived excitation cycles)” value [2]?
A: 1 570 000

Q: With “avidin: positively charged biotin-binding protein” as the compound, how does the “detection by the pH modulation assay” value [4, 6] read?
A: turn off mode

Q: What about the “detection by the pH modulation assay” value [4, 7] of the same compound?
A: turn off

Q: What about the “isoelectric point (pI)” value [5] of the same compound?
A: 10.4

Q: For CN(C)c1ccc2c(-c3ccccc3C(=O)[O-])c3ccc(N(C)C)cc3[o+]c2c1 [TMR], which “σ01 (λ)” value ([2]; 515 nm) is on record?
A: 13.3 (515 nm) 10^−17 cm^2

Q: What about the “τ0 (fluorescence lifetime)” value [2] of the same compound?
A: 2.3 ns

Q: What about the “φb (quantum yield of photobleaching)” value [2] of the same compound?
A: 3.3 × 10^−7

Q: What about the “μ (mean number of survived excitation cycles)” value [2] of the same compound?
A: 3 070 000

Q: Which results are given for CCNc1cc2oc(=O)cc(C(F)(F)F)c2cc1C [Coumarin 307]?
A: σ01 (λ) ([2]; 397 nm): 5.4 (397 nm) 10^−17 cm^2; τ0 (fluorescence lifetime) [2]: 4.5 ns; φb (quantum yield of photobleaching) [2]: 1.5 × 10^−4; μ (mean number of survived excitation cycles) [2]: 6 500

— patent publication US8815778B2, “PH modulation method to detect ligand-receptor binding” (The Texas A&M University System, priority 2008, dated 2014)
